Here are results for one compound from article PMC6333907, “Oligopeptide Signaling through TbGPR89 Drives Trypanosome Quorum Sensing” (Cell, 2019).

The target in this experiment is T1, YjdL (Escherichia coli, UniProt P39276).
T1 construct: gene dtpC; pET28a-YjdL, His-tag vector, overexpressed in whole E. coli BL21-CodonPlus (DE3)-RIPL cells
T1 sequence (P39276 1-485): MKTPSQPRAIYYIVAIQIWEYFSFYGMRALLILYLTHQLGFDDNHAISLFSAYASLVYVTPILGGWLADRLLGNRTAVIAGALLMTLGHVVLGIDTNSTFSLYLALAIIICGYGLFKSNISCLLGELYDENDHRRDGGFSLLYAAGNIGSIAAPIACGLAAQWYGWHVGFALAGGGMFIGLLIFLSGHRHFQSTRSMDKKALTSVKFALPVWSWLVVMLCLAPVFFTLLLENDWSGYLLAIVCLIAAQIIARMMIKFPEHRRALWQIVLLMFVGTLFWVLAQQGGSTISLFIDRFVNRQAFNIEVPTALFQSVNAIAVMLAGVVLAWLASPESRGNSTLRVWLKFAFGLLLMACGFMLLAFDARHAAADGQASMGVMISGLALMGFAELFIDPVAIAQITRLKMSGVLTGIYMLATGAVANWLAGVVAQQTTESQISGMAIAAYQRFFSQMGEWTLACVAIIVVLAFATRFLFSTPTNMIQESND
Put plainly: fluorescent dipeptide uptake in E. coli expressing the protein. In kind it is cell-based. As to conditions: pH 6.5, 37 °C, 15-20 min; printed final 500 μM (1.5 μl of 20 mM in 100 μl); labelled compound.

Regarding `Cc1c(CC(=O)NCCCC[C@H](NC(=O)CCN)C(=O)O)c(=O)oc2cc(N)ccc12` [β-Ala-Lys-AMCA], the “fluorescent dipeptide uptake in E. coli expressing the protein” value was “Relative uptake of fluorescent dipeptide β-ALA-Lys-AMCA in E. coli induced (+IPTG)”.
